Experimental data taken from ChEMBL document CHEMBL5608211, “Antibody-drug conjugates for targeted cancer therapy: Recent advances in potential payloads” (Eur J Med Chem, 2024).
≈ marks a conversion by molar mass, not a printed value.

Experiments:
[1] = test system: CCRF-CEM; assay: Cytotoxicity against human CCRF-CEM cells; assay type: functional, cell-based
[2] = Apparent permeability across basolateral to apical side in human Caco-2 cells incubated for 2 hrs by HPLC-MS analysis; assay type: ADME, cell-based
[3] = test system: SK-OV-3; assay: Cytotoxicity against human SK-OV-3 cells incubated for 96 hrs by PrestoBlue reagent based cell viability assay; assay type: functional; conditions: SK-OV-3, 96 h
[4] = test system: BT-474; assay: Antiproliferative activity against human BT-474 cells assessed as inhibition of cell growth incubated for 4 days by WST-8 assay; assay type: functional, cell-based; conditions: BT-474, 96 h
[5] = test system: A2780; assay: Cytotoxicity against human A2780 cells assessed as inhibition of cell growth incubated for 72 hrs by MTT assay; assay type: functional, cell-based; conditions: A2780, 72 h
[6] = biological target: Tubulin; assay: Displacement of fluorescent Maytansine probe from tubulin (unknown origin) assessed as dissociation constant by competitive binding based fluorescence anisotropy; assay type: protein-complex assay, Homo sapiens
[7] = test system: KB 3-1; assay: Cytotoxicity against human KB 3-1 cells assessed as inhibition of cell growth incubated for 3 days by SRB assay; assay type: functional, cell-based; conditions: KB 3-1, 72 h
[8] = test system: HepG2; assay: Cytotoxicity against human HepG2 cells assessed as inhibition of cell growth incubated for 72 hrs by fluorometric assay; assay type: functional, cell-based; conditions: HepG2, 72 h
[9] = Cytotoxicity against human L540cy cells assessed as reduction in cell growth incubated for 4 days by CellTiter-Glo luminescent assay; assay type: functional, cell-based; conditions: 96 h
[10] = test system: A2780; assay: Cytotoxicity against human A2780 cells; assay type: functional, cell-based
[11] = test system: HT-29; assay: Antiproliferative activity against human HT-29 cells assessed as inhibition of cell growth incubated for 72 hrs by coulter counter method; assay type: functional, cell-based; conditions: HT-29, 72 h
[12] = test system: HT-29; assay: Antiproliferative activity against human HT-29 cells assessed as inhibition of cell growth incubated for 48 to 96 hrs by MTT assay; assay type: functional, cell-based
[13] = test system: K562; assay: Antiproliferative activity against human K562 cells assessed as inhibition of cell growth incubated for 5 days by WST-1 assay; assay type: functional, cell-based; conditions: K562, 120 h
[14] = Inhibition of RNA polymerase II phosphorylation in human HeLa cells by Western blot analysis; assay type: cell-based
[15] = test system: SK-BR-3; assay: Cytotoxicity against human SK-BR-3 cells incubated for 4 to 7 days hrs by CellTiter-Glo luminescent assay; assay type: functional, cell-based

**Q.** For `COc1ccc(C[C@H]2NC(=O)/C=C/C[C@@H]([C@H](C)[C@@H](O)[C@@H](Cl)c3ccccc3)OC(=O)[C@H](CC(C)C)OC(=O)C(C)(C)CNC2=O)cc1Cl`, which IC50 [1] is on record?
**A.** 0.027 nM

**Q.** Which Papp B→A at 2 h [2] does the source give for `CC[C@H](C)[C@@H]([C@@H](CC(=O)N1CCC[C@H]1[C@H](OC)[C@@H](C)C(=O)N[C@@H](Cc1ccccc1)c1nnc(-c2ccccc2)o1)OC)N(C)C(=O)[C@@H](NC(=O)[C@H](C(C)C)N(C)CCCC(=O)O)C(C)C` here?
**A.** 29 nm/s

**Q.** For `CC[C@H](C)[C@@H]([C@@H](CC(=O)N1CCC[C@H]1[C@H](OC)[C@@H](C)C(=O)N[C@@H](Cc1ccccc1)c1nccs1)OC)N(C)C(=O)[C@@H](NC(=O)[C@H](C(C)C)N(C)CC(O)C(O)C(O)C(O)CN=[N+]=[N-])C(C)C` (some centres undefined), which IC50 [3] is on record?
**A.** < 1 nM

**Q.** Which IC50 [4] does the source give for `CC[C@H](C)[C@@H]([C@@H](CC(=O)N1C[C@@H](NC)C[C@H]1[C@H](OC)[C@@H](C)C(=O)NCCc1c(F)cccc1F)OC)N(C)C(=O)[C@@H](NC(=O)[C@H](C(C)C)N(C)C)C(C)C` here?
**A.** < 0.4 nM

**Q.** With `CC[C@H](C)[C@@H]([C@@H](CC(=O)N1C[C@@H](N)C[C@H]1[C@H](OC)[C@@H](C)C(=O)NCCc1c(F)cccc1F)OC)N(C)C(=O)[C@@H](NC(=O)[C@H](C(C)C)N(C)C)C(C)C` as the compound, how does the IC50 [4] read?
**A.** < 0.4 nM

**Q.** Which results are given for `COc1cc2cc(c1Cl)N(C)C(=O)C[C@H](OC(C)=O)[C@@]1(C)O[C@H]1[C@H](C)[C@@H]1C[C@@](O)(NC(=O)O1)[C@H](OC)/C=C/C=C(\C)C2`?
**A.** IC50 [5]: 0.25 nM; Kd [6]: 11 nM

**Q.** With `CN[C@H](C(=O)N[C@H](C(=O)N(C)[C@H](/C=C(\C)C(=O)N1CCC[C@H]1[C@H](OC)[C@@H](C)C(=O)N[C@@H](Cc1ccccc1)c1nccs1)C(C)C)C(C)(C)C)C(C)(C)c1ccccc1` as the compound, how does the IC50 [7] read?
**A.** 0.75 nM

**Q.** Which IC50 [8] does the source give for `CC[C@H](C)[C@@H]([C@@H](CC(=O)N1C[C@@H](NC(=O)OC(C)(C)C)C[C@H]1[C@H](OC)[C@@H](C)C(=O)NCCc1c(F)cccc1F)OC)N(C)C(=O)[C@@H](NC(=O)[C@H](C(C)C)N(C)C)C(C)C` here?
**A.** 0.13 nM

**Q.** For `Nc1cccc(C(=O)N2CCC(CCCCNC(=O)/C=C/c3cccnc3)CC2)c1`, which EC50 [9] is on record?
**A.** 6.3 nM

**Q.** With `CC(=O)N[C@@H](C)c1ccc(NC(=O)[C@H]2C[C@@H]2c2cccnc2)cc1` as the compound, how does the IC50 [10] read?
**A.** 5 nM

**Q.** Which IC50 [11] does the source give for `CC[C@H](C)[C@H](NC(=O)[C@H]1CCCCN1C)C(=O)N(CC1CC1)[C@H](C[C@@H](OC(C)=O)c1nc(C(=O)N[C@@H](Cc2ccccc2)C[C@H](C)C(=O)O)cs1)C(C)C` here?
**A.** 0.055 nM

**Q.** With `CC[C@H](C)[C@@H]([C@@H](CC(=O)N1CCC[C@H]1[C@H](OC)[C@@H](C)C(=O)N[C@H](Cc1ccccc1)c1nnc(-c2ccccc2)o1)OC)N(C)C(=O)[C@@H](NC(=O)[C@H](C(C)C)N(C)CCCC(=O)O)C(C)C` as the compound, how does the IC50 [12] read?
**A.** 0.1 nM

**Q.** What about the Papp B→A at 2 h [2] of the same compound?
**A.** 45 nm/s

**Q.** For `CC[C@H](C)[C@H](NC(=O)[C@H]1CCCCN1C)C(=O)N(COC(=O)CC(C)C)[C@H](C[C@@H](OC(C)=O)c1nc(C(=O)N[C@H](Cc2ccccc2)C[C@H](C)C(=O)O)cs1)C(C)C`, which IC50 [13] is on record?
**A.** 0.02 ng/mL (≈ 0.0242 nM)

**Q.** With `C#CCCCCC(=O)O[C@H]1CC(=O)N(C)c2cc(cc(OC)c2Cl)C/C(C)=C/C=C/[C@@H](OC)[C@@]2(O)C[C@H](OC(=O)N2)[C@@H](C)[C@@H]2O[C@]12C` as the compound, how does the IC50 [5] read?
**A.** 0.033 nM

**Q.** And the Kd [6]?
**A.** 20 nM

**Q.** Which IC50 [14] does the source give for `CC[C@H](C)[C@@H]1NC(=O)CNC(=O)[C@H]2CC(=O)[C@H]([C@@H](C)[C@@H](O)CO)NC(=O)[C@@H]3C[C@@H](C#N)CN3C(=O)[C@H](CC(N)=O)NC(=O)[C@H](CSc3[nH]c4cc(O)ccc4c3C2)NC(=O)CNC1=O` here?
**A.** 480 nM

**Q.** With `CCCO[C@H](C[C@H](C(C)C)N(C)C(=O)[C@@H](NC(=O)[C@H]1CCCCN1C)C(C)C)c1nc(C(=O)N[C@@H](Cc2ccc(N)cc2)C[C@H](C)C(=O)O)c(CCOCc2ccccc2)s1` as the compound, how does the IC50 [15] read?
**A.** 0.04 nM
